Results from patent US7696186B2, “7,9-substituted tetracycline compounds” (Paratek Pharmaceuticals, Inc., priority 2001, dated 2010).

Tests used:
Assay in all cases: In Vitro Minimum Inhibitory Concentration (MIC) Assay
Assay type in all cases: cell-based
Set-up in all cases: key: compounds which were good inhibitors of growth of a particular bacteria are indicated with *; compounds which were very good inhibitors of a particular bacteria are indicated with **; compounds with were particularly good inhibitors of a particular bacteria are indicated with ***
Details in all cases: CAMHB, 35° C., approximately 18 hr
S. aureus = system: S. aureus
Procedure: (§1) In Vitro Minimum Inhibitory Concentration (MIC) Assay
(§2) The following assay is used to determine the efficacy of minocycline compounds against common bacteria. 2 mg of each compound is dissolved in 100 μl of DMSO. The solution is then added to cation-adjusted Mueller Hinton broth (CAMHB), which results in a final compound concentration of 200 μg per ml. The minocycline compound solutions are diluted to 50 μL volumes, with a test compound concentration of 0.098 μg/ml. Optical density (OD) determinations are made from fresh log-phase broth cultures of the test strains. Dilutions are made to achieve a final cell density of 1×10^6 CFU/ml. At OD=1, cell densities for different genera should be approximately:
(§3) 50 μl of the cell suspensions are added to each well of microtiter plates. The final cell density should be approximately 5×10^5 CFU/ml. These plates are incubated at 35° C. in an ambient air incubator for approximately 18 hr. The plates are read with a microplate reader and are visually inspected when necessary. The MIC is defined as the lowest concentration of the minocycline compound that inhibits growth. Compounds of the invention indicate good inhibition of growth.
(§4) In Table 2, compounds which were good inhibitors of growth of a particular bacteria are indicated with *, compounds which were very good inhibitors of a particular bacteria are indicated with **, and compounds with were particularly good inhibitors of a particular bacteria are indicated with ***.

E. coli = system: E. coli
Procedure: as §1, §2, §3, §4

E. hirae = system: E. hirae
Procedure: as §1, §2, §3, §4

| SMILES | S. aureus (inhibition of growth, MIC assay) (S. aureus) | E. coli (inhibition of growth, MIC assay) (E. coli) | E. hirae (inhibition of growth, MIC assay) (E. hirae) |
| --- | --- | --- | --- |
| CCCCc1cc(CN)c(O)c2c1C[C@H]1C[C@H]3[C@H](N(C)C)C(O)=C(C(N)=O)C(=O)[C@@]3(O)C(O)=C1C2=O [HQ] | ** | ** | ** |
| CN(C)[C@@H]1C(O)=C(C(N)=O)C(=O)[C@@]2(O)C(O)=C3C(=O)c4c(O)c(-c5ccc6c(c5)OCO6)cc(-c5ccc6c(c5)OCO6)c4C[C@H]3C[C@@H]12 [Compound HZ, 7,9-Bis(3,4-Methylenedioxyphenyl)-Sancycline] | *** | * | ** |
| CC#Cc1cc(C#CC)c2c(c1O)C(=O)C1=C(O)[C@]3(O)C(=O)C(C(N)=O)=C(O)[C@@H](N(C)C)[C@@H]3C[C@@H]1C2 [IA] | * | * | * |
| CN(C)[C@@H]1C(O)=C(C(N)=O)C(=O)[C@@]2(O)C(O)=C3C(=O)c4c(O)c(CNC(=O)c5cccnc5)cc(CCC5CCCCC5)c4C[C@H]3C[C@@H]12 [HI] | ** | * | ** |
| CN(C)[C@@H]1C(O)=C(C(N)=O)C(=O)[C@@]2(O)C(O)=C3C(=O)c4c(O)c(C(C)(C)C)cc(-c5cccc([N+](=O)[O-])c5)c4C[C@H]3C[C@@H]12 [HP] | ** | * | *** |
| CCCCCc1cc(CN2C(=O)c3ccccc3C2=O)c(O)c2c1C[C@H]1C[C@H]3[C@H](N(C)C)C(O)=C(C(N)=O)C(=O)[C@@]3(O)C(O)=C1C2=O [HU] | ** | * | *** |
| CN(C)[C@@H]1C(O)=C(C(N)=O)C(=O)[C@@]2(O)C(O)=C3C(=O)c4c(O)c(CN5C(=O)c6ccccc6C5=O)cc(CN5C(=O)c6ccccc6C5=O)c4C[C@H]3C[C@@H]12 [HB] | ** | * | ** |
| CCc1cc(CNC(=O)c2cccnc2)c(O)c2c1C[C@H]1C[C@H]3[C@H](N(C)C)C(O)=C(C(N)=O)C(=O)[C@@]3(O)C(O)=C1C2=O [HF] | * | * | ** |
| CCc1cc(C#CC2=CCCCC2)c(O)c2c1C[C@H]1C[C@H]3[C@H](N(C)C)C(O)=C(C(N)=O)C(=O)[C@@]3(O)C(O)=C1C2=O [Compound HO, 7-Ethyl-9-Cyclohexenylethynyl-Sancycline] | *** | * | *** |
| COc1ccc(C#Cc2cc(C#Cc3ccc(OC)cc3)c3c(c2O)C(=O)C2=C(O)[C@]4(O)C(=O)C(C(N)=O)=C(O)[C@@H](N(C)C)[C@@H]4C[C@@H]2C3)cc1 [HC] | * | * | * |
| CC(=O)NCc1cc(-c2ccccc2)c2c(c1O)C(=O)C1=C(O)[C@]3(O)C(=O)C(C(N)=O)=C(O)[C@@H](N(C)C)[C@@H]3C[C@@H]1C2 [HX] | ** | * | *** |
| CCc1cc(CN)c(O)c2c1C[C@H]1C[C@H]3[C@H](N(C)C)C(O)=C(C(N)=O)C(=O)[C@@]3(O)C(O)=C1C2=O [HG] | ** | * | * |
| CN(C)[C@@H]1C(O)=C(C(N)=O)C(=O)[C@@]2(O)C(O)=C3C(=O)c4c(O)c(CN5C(=O)c6ccccc6C5=O)cc(-c5cccc([N+](=O)[O-])c5)c4C[C@H]3C[C@@H]12 [HK] | ** | * | ** |
| CN(C)[C@@H]1C(O)=C(C(N)=O)C(=O)[C@@]2(O)C(O)=C3C(=O)c4c(O)c(CN)cc(-c5cccc([N+](=O)[O-])c5)c4C[C@H]3C[C@@H]12 [HJ] | ** | * | ** |
| CCCc1cc(CN)c(O)c2c1C[C@H]1C[C@H]3[C@H](N(C)C)C(O)=C(C(N)=O)C(=O)[C@@]3(O)C(O)=C1C2=O [HL] | ** | ** | ** |
| CN(C)[C@@H]1C(O)=C(C(N)=O)C(=O)[C@@]2(O)C(O)=C3C(=O)c4c(O)c(CN)cc(-c5ccccc5)c4C[C@H]3C[C@@H]12 [HE] | ** | * | ** |
| CN(C)[C@@H]1C(O)=C(C(N)=O)C(=O)[C@@]2(O)C(O)=C3C(=O)c4c(O)c(CN)cc(-c5ccc(F)cc5)c4C[C@H]3C[C@@H]12 [HM] | ** | ** | ** |
| CCCCCCc1cc(CN)c(O)c2c1C[C@H]1C[C@H]3[C@H](N(C)C)C(O)=C(C(N)=O)C(=O)[C@@]3(O)C(O)=C1C2=O [HS] | ** | *** | *** |
| CN(C)[C@@H]1C(O)=C(C(N)=O)C(=O)[C@@]2(O)C(O)=C3C(=O)c4c(O)c(CNC(=O)CCl)cc(-c5ccccc5)c4C[C@H]3C[C@@H]12 [HN] | *** | * | ** |
| CC(=O)NCc1cc(-c2ccc(F)cc2)c2c(c1O)C(=O)C1=C(O)[C@]3(O)C(=O)C(C(N)=O)=C(O)[C@@H](N(C)C)[C@@H]3C[C@@H]1C2 [HT] | ** | * | ** |
| CCc1cc(C#Cc2ccc(OC)cc2)c(O)c2c1C[C@H]1C[C@H]3[C@H](N(C)C)C(O)=C(C(N)=O)C(=O)[C@@]3(O)C(O)=C1C2=O [HW] | ** | * | ** |
| CCc1cc(CC)c2c(c1O)C(=O)C1=C(O)[C@]3(O)C(=O)C(C(N)=O)=C(O)[C@@H](N(C)C)[C@@H]3C[C@@H]1C2 [HV] | *** | ** | *** |
| CN(C)[C@@H]1C(O)=C(C(N)=O)C(=O)[C@@]2(O)C(O)=C3C(=O)c4c(O)c(CNC(=O)C5CCCO5)cc(-c5ccc(F)cc5)c4C[C@H]3C[C@@H]12 (stereo partly drawn) [HR] | ** | * | ** |
